Experimental data published in patent US4548944A, “Guanidino-heterocyclyl-phenyl-amidines and salts thereof” (Istituto de Angeli S.p.A., priority 1982, dated 1985).

Key:
histamine H2 -receptors [1] = target: T1, histamine H2 -receptors (Cavia porcellus, UniProt P47747); test: In vitro inhibition of histamine-induced tachycardia (positive chronotropic effect) in isolated guinea pig atria; settings: Krebs-Henseleit pH 7.4, 32° C., histamine 10^-6 g/ml, 30 min contact
T1 construct: isolated guinea pig atria suspended in an organ bath; from tissue; host or cells: isolated guinea pig atria
T1 sequence (P47747 whole entry): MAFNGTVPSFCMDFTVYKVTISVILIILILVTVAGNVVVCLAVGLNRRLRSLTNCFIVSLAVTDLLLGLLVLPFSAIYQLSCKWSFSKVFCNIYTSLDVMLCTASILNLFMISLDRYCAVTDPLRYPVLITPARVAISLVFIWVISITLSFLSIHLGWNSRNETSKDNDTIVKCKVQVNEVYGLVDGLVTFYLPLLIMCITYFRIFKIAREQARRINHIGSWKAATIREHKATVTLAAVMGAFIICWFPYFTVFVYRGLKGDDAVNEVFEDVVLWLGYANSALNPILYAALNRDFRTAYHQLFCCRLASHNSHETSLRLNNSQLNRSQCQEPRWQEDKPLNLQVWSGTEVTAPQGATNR
Protocol: The myocardial preparation, loaded with 1 gm isometric tension, was allowed to stabilize 60 minutes, and myocardial contractions were recorded through an isometric lever connected to a strain-gauge coupler, and the instantaneous rate was monitored with a cardiotachometer and a heat-writing pen recorder. After two control responses to histamine (10^-6 g/ml) the test compound was added to the bath at the desired final concentration and left for 30 minutes before the atria were again challenged with histamine. The chronotropic obtained in the presence of the antagonist was then compared to the control response to histamine, and the percent reduction of the histamine H2 -evoked response was calculated. […] 3, Smooth muscle, Ed. Daniel, E. E. Paton, M., Plenum Press, New York (1975); Ash and Schild, Br. J.Pharmacol. Chemother. 27, 427-439, 1966.

Swiss mice = test: Acute toxicity, single oral dose in Swiss mice; type: in vivo; settings: 500 mg/kg, fasted 18 hours, mortality at 14 days, values expressed as base
Protocol: The acute toxicity of the particularly preferred compounds of the formula I was approximately determined by oral administration of a single dose to groups of 5 Swiss mice, fasted for 18 hours before the test. The evaluation of the incidence of mortality was considered 14 days after the administration. The results are shown in the following table, in which the values are expressed taking the compound as a base.

histamine H2 -receptors [2] = target: T2, histamine H2 -receptors (Rattus norvegicus, UniProt P25102); test: In vivo antisecretory activity on histamine-induced gastric secretion of acid (stomach-perfused rat); settings: iv, histamine 1 mg/kg/hr, values expressed as base, read-out: ED50, inhibition of histamine-induced gastric secretion
T2 construct: intravenous or intraduodenal administration in stomach-perfused rats; from tissue; host or cells: stomach of the anesthetized living rat (in vivo)
T2 sequence (P25102 whole entry, the tested form may be a part): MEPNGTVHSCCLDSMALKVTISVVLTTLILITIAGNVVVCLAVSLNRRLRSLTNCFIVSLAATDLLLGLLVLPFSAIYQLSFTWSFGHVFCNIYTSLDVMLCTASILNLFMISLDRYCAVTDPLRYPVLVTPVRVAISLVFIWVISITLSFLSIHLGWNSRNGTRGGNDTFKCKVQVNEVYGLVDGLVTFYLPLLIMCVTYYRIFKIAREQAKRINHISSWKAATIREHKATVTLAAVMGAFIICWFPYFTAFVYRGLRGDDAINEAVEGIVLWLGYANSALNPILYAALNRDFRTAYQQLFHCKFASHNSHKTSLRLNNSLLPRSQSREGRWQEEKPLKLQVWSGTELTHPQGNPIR
Description: The ability of the test compounds to inhibit histamine-induced gastric secretion of acid was investigated after intravenous or intraduodenal administration in stomach-perfused rats, according to Gosh and Schild, Br. J. Pharmacol. Chemother. 13, 54, (1958).
The preparation of the animals under general anesthesia (urethane, 1 g/kg i.p.) and constant temperature, was achieved by inserting and tying in place polyethyl tubes (PE 50) in the esophagus and in the pyloricantral region. After the stomach was washed to remove residual of foods, continuous perfusion of the stomach was started with saline, 0.5 ml/min. (37° C.), primed by a Jobling peristaltic pump. After 30 minutes of perfusion adaptation, the stomach perfusate was collected in 30 min. samples, and titrated for acid content, expressed as μEq of NaOH 1N. As control acid output became constant, intravenous perfusion of histamine (1 mg/kg/hr) was started and maintained throughout the experimental period. After the acid secretion had reached the steadily higher level, increasing doses of the test compounds were injected intravenously in order to obtain dose-response functions. The ED50 was then calculated by standard procedure.

gastric acid secretion = settings: cited from earlier work; for inhibition of gastric acid secretion relative to cimetidine: in vivo, literature
H2 -receptor = settings: in vitro, literature; cited from earlier work

SMILES | EC50 (histamine H2 -receptors [1]) [nM] | No. Dead/No. Treated Mice (Swiss mice) | ED50 (histamine H2 -receptors [2]) [mg/kg] | effect on gastric acid secretion (gastric acid secretion; literature (Black et al.)) | H2 -receptor antagonist potency relative to cimetidine (H2 -receptor) | inhibition of gastric acid secretion relative to cimetidine (gastric acid secretion)
CCNC=Nc1cccc(-c2csc(NC(=N)N)n2)c1 [14(a), N-Ethyl-N'-[3-(2-guanidino-4-thiazolyl)phenyl]-formamidine] | 530 | 0/5 | 0.013 | – | – | –
CCNC=Nc1cccc(-c2nsc(NC(=N)N)n2)c1 [14(ap), N-Ethyl-N'-[3-(5-guanidino-1,2,4-thiadiazol-3-yl)-phenyl]-formamidine] | 450 | 0/5 | 0.051 | – | – | –
CCCNC=Nc1cccc(-c2csc(NC(=N)N)n2)c1 [14(b), N-Propyl-N'-[3-(2-guanidino-4-thiazolyl)-phenyl]-formamidine] | 280 | 0/5 | 0.019 | – | – | –
CC(C)NC=Nc1cccc(-c2csc(NC(=N)N)n2)c1 [14(c), N-Isopropyl-N'-[3-(2-guanidino-4-thiazolyl)-phenyl]-formamidine] | 200 | 1/5 | 0.035 | – | – | –
CCCCNC=Nc1cccc(-c2csc(N=C(N)N)n2)c1 [14(d), N-Butyl-N'-[3-(2-quanidino-4-thiazolyl)-phenyl]-formamidine] | 550 | 4/5 | 0.073 | – | – | –
CCC(C)NC=Nc1cccc(-c2csc(NC(=N)N)n2)c1 (centres unmarked) [14(e), N-sec.Butyl-N'-[3-(2-guanidino-4-thiazolyl)-phenyl]-formamidine] | 300 | 0/5 | 0.041 | – | – | –
CC(C)CNC=Nc1cccc(-c2csc(NC(=N)N)n2)c1 [14(f), N-Isobutyl-N'-[3-(2-guanidino-4-thiazolyl)-phenyl]-formamidine] | 1200 | 0/5 | 0.082 | – | – | –
C=CCNC=Nc1cccc(-c2csc(NC(=N)N)n2)c1 [14(j), N-Allyl-N'-[3-(2-guanidino-4-thiazolyl)-phenyl]-formamidine] | 330 | 0/5 | 0.02 | – | – | –
C#CCNC=Nc1cccc(-c2csc(NC(=N)N)n2)c1 [14(l), N-Propargyl-N'-[3-(2-guanidino-4-thiazolyl)-phenyl]-formamidine] | 3100 | 0/5 | 0.074 | – | – | –
COCCNC=Nc1cccc(-c2csc(NC(=N)N)n2)c1 [14(p), N-(2-Methoxy-ethyl)-N'-[3-(2-guanidino-4-thiazolyl)-phenyl]-formamidine] | 480 | 0/5 | 0.05 | – | – | –
N=C(N)Nc1nc(-c2cccc(N=CNCCCO)c2)cs1 [14(s), N-(3-Hydroxy-propyl)-N'-[3-(2-guanidino-4-thiazolyl)-phenyl]-formamidine] | 270 | 0/5 | 0.028 | – | – | –
CN/C=N/c1cccc(-c2csc(N=C(N)N)n2)c1 [Example 14, N-Methyl-N'-[3-(2-guanidino-4-thiazolyl)-phenyl]-formamidine] | 330 | 0/5 | 0.02 | – | – | –
COc1ccc(CN(CCN(C)C)c2ccccn2)cc1 [mepyramine] | – | – | – | no effect on gastric acid secretion | – | –
CNC(=C[N+](=O)[O-])NCCSCc1ccc(CN(C)C)o1 [ranitidine] | – | – | – | – | more potent than cimetidine | more potent than cimetidine
CNC(=NCCSCc1csc(N=C(N)N)n1)NC#N [tiotidine] | – | – | – | – | more potent than cimetidine | more potent than cimetidine
